Each structure is given as a SMILES string.

The test system of this experiment is genotype A, "Long" strain RSV. The experiment is described as follows: RSV-A assay (CPE, ATPlite readout in Hep-2 cells). The format is cell-based. Particulars: human respiratory syncytial virus, HEp-2, Hep-2 cells, genotype A "Long" strain RSV, MOI 0.1; read-out: Human RSV-A (“Long” strain) EC50. The essentials: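 Hep-2 cells (8,000/well) received 2-fold serial compound dilutions in duplicate and RSV Long strain at MOI 0.1. After 5 days' incubation, cell health was read as ATP by ATPlite luminescence, with virus-only and uninfected controls defining max and minimum CPE; EC50 reported.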
For orientation: ATP-based viability assays read luminescence as a measure of living cells.
As a reminder, the EC50 is the concentration that produces a half-maximal response. For the compound `C[C@]1(C(=O)NCc2ccc[nH]2)COc2c1cc([C@@](O)(CNC(=O)c1cc(OC3CC3)c3ncccc3c1)C(F)(F)F)nc2-c1ccc(F)cc1` [Example 480], the EC50 was < 200 nM.
The result for `CC(C)(O)CCNC(=O)[C@@]1(C)COc2c1cc([C@@](O)(CNC(=O)c1cc(OC3CC3)c3ncccc3c1)C(F)(F)F)nc2-c1ccc(F)cc1` [Example 483] reads < 200 nM.
For the compound `C[C@]1(C(=O)NCCc2ccccc2)COc2c1cc([C@@](O)(CNC(=O)c1cc(OC3CC3)c3ncccc3c1)C(F)(F)F)nc2-c1ccc(F)cc1` [Example 486], the EC50 was > 200 nM.
For `C[C@]1(C(=O)NCCCc2ccccc2)COc2c1cc([C@@](O)(CNC(=O)c1cc(OC3CC3)c3ncccc3c1)C(F)(F)F)nc2-c1ccc(F)cc1` [Example 487] the value was > 200 nM; for `CC(C)(O)C(F)(F)CNC(=O)[C@@]1(C)COc2c1cc([C@@](O)(CNC(=O)c1cc(OC3CC3)c3ncccc3c1)C(F)(F)F)nc2-c1ccc(F)cc1` [Example 488], < 200 nM.
For `C[C@]1(C(=O)NCC2(O)CC2)COc2c1cc([C@@](O)(CNC(=O)c1cc(OC3CC3)c3ncccc3c1)C(F)(F)F)nc2-c1ccc(F)cc1` [Example 489], the EC50 was < 200 nM.
The result for `C[C@]1(C(=O)NCc2ccoc2)COc2c1cc([C@@](O)(CNC(=O)c1cc(OC3CC3)c3ncccc3c1)C(F)(F)F)nc2-c1ccc(F)cc1` [Example 490] reads < 200 nM; that for `C[C@]1(C(=O)NCCC2(O)CC2)COc2c1cc([C@@](O)(CNC(=O)c1cc(OC3CC3)c3ncccc3c1)C(F)(F)F)nc2-c1ccc(F)cc1` [Example 491], < 200 nM.
For `COc1cc(C(=O)NC[C@](O)(c2cc3c(c(-c4ccc(F)cc4)n2)OC[C@]3(C)C(=O)NCCC(C)(C)O)C(F)(F)F)cc2cccnc12` [Example 494] the value was < 200 nM; for `CC(C)(O)CNC(=O)[C@@]1(C)COc2c1cc([C@@](O)(CNC(=O)c1cc(Cl)c3ncccc3c1)C(F)(F)F)nc2-c1ccc(F)cc1` [Example 496], < 200 nM.
For `CC(C)(O)CNC(=O)[C@@]1(C)COc2c1cc([C@@](O)(CNC(=O)c1ccc3nc(N)oc3c1)C(F)(F)F)nc2-c1ccc(F)cc1` [Example 498] the value was < 200 nM; for `Cc1cnc2c(OC3CC3)cc(C(=O)NC[C@](O)(c3cc4c(c(-c5ccc(F)cc5)n3)OC[C@]4(C)C(=O)NCC(C)(C)O)C(F)(F)F)cc2c1` [Example 499], < 200 nM; for `CC(C)(O)CNC(=O)[C@@]1(C)COc2c1cc([C@@](O)(CNC(=O)c1ccc3nc(N)sc3c1)C(F)(F)F)nc2-c1ccc(F)c(Cl)c1` [Example 500], < 200 nM.
On to `COc1cc(C(=O)NC[C@](O)(c2cc3c(c(-c4ccc(F)cc4)n2)OC[C@]3(C)C(=O)NCC(C)(C)O)C(F)(F)F)cc2sc(N)nc12` [Example 502], for which the EC50 is < 200 nM.
The result for `COc1cc(C(=O)NC[C@](O)(c2cc3c(c(-c4ccc(F)c(C)c4)n2)OC[C@]3(C)C(=O)NCC(C)(C)O)C(F)(F)F)cc2cc(C)cnc12` [Example 503] reads < 200 nM; that for `Cc1cc(-c2nc([C@@](O)(CNC(=O)c3cc(OC4CC4)c4ncccc4c3)C(F)(F)F)cc3c2OC[C@]3(C)C(=O)NCC(C)(C)O)ccc1F` [Example 504], > 200 nM; that for `Cc1cc(-c2nc([C@@](O)(CNC(=O)c3ccc4nc(N)sc4c3)C(F)(F)F)cc3c2OC[C@]3(C)C(=O)NCC(C)(C)O)ccc1F` [Example 505], < 200 nM.
For `CC(C)(O)CNC(=O)[C@@]1(C)COc2c1cc([C@@](O)(CNC(=O)c1cc(OCC(N)=O)c3ncccc3c1)C(F)(F)F)nc2-c1ccc(F)cc1` [Example 506] the value was < 200 nM.
The result for `Cc1cnc2c(OCC(N)=O)cc(C(=O)NC[C@](O)(c3cc4c(c(-c5ccc(F)cc5)n3)OC[C@]4(C)C(=O)NCC(C)(C)O)C(F)(F)F)cc2c1` [Example 507] reads < 200 nM; that for `C#Cc1nc([C@@](O)(CNC(=O)c2ccc(OC3CC3)c(OC)c2)C(F)(F)F)cc2c1OC[C@]2(C)C(N)=O` [Example 509], > 200 nM.
In the case of `COc1cc(C(=O)NC[C@](O)(c2cc3c(c(C#Cc4ccc(F)cc4)n2)OC[C@]3(C)C(N)=O)C(F)(F)F)ccc1OC1CC1` [Example 510], the EC50 was > 200 nM.
As for `COc1cc(C(=O)NC[C@](O)(c2cc3c(c(C#Cc4cc(F)c(F)c(F)c4)n2)OC[C@]3(C)C(N)=O)C(F)(F)F)ccc1OC1CC1` [Example 511], the EC50 was > 200 nM.
For `COc1cc(C(=O)NC[C@](O)(c2cc3c(c(C#Cc4ccc(F)c(Cl)c4)n2)OC[C@]3(C)C(N)=O)C(F)(F)F)ccc1OC1CC1` [Example 512] the value was > 200 nM; for `COc1cc(C(=O)NC[C@](O)(c2cc3c(c(C#Cc4cccc(Cl)c4F)n2)OC[C@]3(C)C(N)=O)C(F)(F)F)ccc1OC1CC1` [Example 513], > 200 nM.
The result for `COc1cc(C(=O)NC[C@](O)(c2cc3c(c(C#Cc4ccc(Cl)cc4F)n2)OC[C@]3(C)C(N)=O)C(F)(F)F)ccc1OC1CC1` [Example 514] reads > 200 nM; that for `COc1cc(C(=O)NC[C@](O)(c2cc3c(c(C#Cc4ccccc4)n2)OC[C@]3(C)C(N)=O)C(F)(F)F)ccc1OC1CC1` [Example 515], > 200 nM.
The result for `COc1cc(C(=O)NC[C@](O)(c2cc3c(c(C#Cc4cccc(F)c4)n2)OC[C@]3(C)C(N)=O)C(F)(F)F)ccc1OC1CC1` [Example 516] reads > 200 nM; that for `COc1cc(C(=O)NC[C@](O)(c2cc3c(c(-c4cn(-c5ccc(F)cc5)nn4)n2)OC[C@]3(C)C(N)=O)C(F)(F)F)ccc1OC1CC1` [Example 517], > 200 nM; that for `C[C@]1(C(N)=O)COc2c1cc([C@@](O)(CNC(=O)c1ccc3ncc(C4CC4)cc3c1)C(F)(F)F)nc2-c1ccc(F)cc1` [Example 525], < 200 nM.
`C[C@](F)(CNC(=O)c1cc(OC2CC2)c2ncccc2c1)c1cc2c(c(-c3ccc(F)cc3)n1)OC[C@]2(C)C(N)=O` [Example 545]: the 50% effective concentration (EC50) is > 200 nM.
Turning to `Cc1cnc2c(NC(=O)C(F)(F)F)cc(C(=O)NC[C@](O)(c3cc4c(c(-c5ccc(F)cc5)n3)OC[C@]4(C)C(N)=O)C(F)(F)F)cc2c1` [Example 554], the EC50 was < 200 nM.
The result for `C[C@]1(C(=O)N2CCC(C#N)C2)COc2c1cc([C@@](O)(CNC(=O)c1cc(OC3CC3)c3ncccc3c1)C(F)(F)F)nc2-c1ccc(F)cc1` (stereo partly shown) [Example 555] reads < 200 nM; that for `C[C@]1(C(=O)N2CCC(=O)C2)COc2c1cc([C@@](O)(CNC(=O)c1cc(OC3CC3)c3ncccc3c1)C(F)(F)F)nc2-c1ccc(F)cc1` [Example 556], < 200 nM.
The result for `Cc1cnc2c(NC(=O)NC3COC3)cc(C(=O)NC[C@](O)(c3cc4c(c(-c5ccc(F)cc5)n3)OC[C@]4(C)C(N)=O)C(F)(F)F)cc2c1` [Example 559] reads < 200 nM.
Turning to `C[C@]1(C(N)=O)COc2c1cc([C@@](O)(CNC(=O)c1cc(OC3CC3)c3[nH]c(=O)ccc3c1)C(F)(F)F)nc2-c1ccc(F)cc1` [Example 584], the EC50 was < 200 nM.
For `C[C@]1(C(N)=O)COc2c1cc([C@@](O)(CNC(=O)c1cnn3cccnc13)C(F)(F)F)nc2-c1ccc(F)cc1` [Example 585] the value was > 200 nM.
The result for `COc1ccc2[nH]nc(C(=O)NC[C@](O)(c3cc4c(c(-c5ccc(F)cc5)n3)OC[C@]4(C)C(N)=O)C(F)(F)F)c2c1` [Example 586] reads > 200 nM; that for `C[C@]1(C(N)=O)COc2c1cc([C@@](O)(CNC(=O)c1ccc3cn[nH]c3c1)C(F)(F)F)nc2-c1ccc(F)cc1` [Example 587], > 200 nM; that for `C[C@]1(C(N)=O)COc2c1cc([C@@](O)(CNC(=O)c1cc3cc(Cl)ccc3[nH]1)C(F)(F)F)nc2-c1ccc(F)cc1` [Example 589], > 200 nM.
The result for `Cn1ncc2cc(C(=O)NC[C@](O)(c3cc4c(c(-c5ccc(F)cc5)n3)OC[C@]4(C)C(N)=O)C(F)(F)F)ccc21` [Example 591] reads < 200 nM; that for `COc1ccc(CC(=O)NC[C@](O)(c2cc3c(c(-c4ccc(F)cc4)n2)OC[C@]3(C)C(N)=O)C(F)(F)F)cc1OC` [Example 592], > 200 nM; that for `COc1ccc(CC(=O)NC[C@](O)(c2cc3c(c(-c4ccc(F)cc4)n2)OC[C@]3(C)C(N)=O)C(F)(F)F)cc1` [Example 593], > 200 nM.
As for `COc1cccc(CC(=O)NC[C@](O)(c2cc3c(c(-c4ccc(F)cc4)n2)OC[C@]3(C)C(N)=O)C(F)(F)F)c1` [Example 594], the EC50 is > 200 nM.
Take `C[C@]1(C(N)=O)COc2c1cc([C@@](O)(CNC(=O)c1cc3c(F)cc(F)cc3[nH]1)C(F)(F)F)nc2-c1ccc(F)cc1` [Example 596]: the EC50 was < 200 nM.
Turning to `C[C@]1(C(N)=O)COc2c1cc([C@@](O)(CNC(=O)c1cc3c(F)cc(Cl)cc3[nH]1)C(F)(F)F)nc2-c1ccc(F)cc1` [Example 597], the EC50 was < 200 nM.
The result for `COc1ccc2[nH]c(C(=O)NC[C@](O)(c3cc4c(c(-c5ccc(F)cc5)n3)OC[C@]4(C)C(N)=O)C(F)(F)F)cc2c1` [Example 598] reads < 200 nM; that for `C[C@]1(C(N)=O)COc2c1cc([C@@](O)(CNC(=O)c1cc3ccccc3[nH]1)C(F)(F)F)nc2-c1ccc(F)cc1` [Example 599], > 200 nM.
For `C[C@]1(C(N)=O)COc2c1cc([C@@](O)(CNC(=O)c1cc3c(F)cccc3[nH]1)C(F)(F)F)nc2-c1ccc(F)cc1` [Example 601] the value was > 200 nM.
The result for `C[C@]1(C(N)=O)COc2c1cc([C@@](O)(CNC(=O)c1cc3c(Cl)cccc3[nH]1)C(F)(F)F)nc2-c1ccc(F)cc1` [Example 602] reads > 200 nM.
On to `COc1cccc2cc(C(=O)NC[C@](O)(c3cc4c(c(-c5ccc(F)cc5)n3)OC[C@]4(C)C(N)=O)C(F)(F)F)[nH]c12` [Example 603], for which the EC50 was > 200 nM.
For `C[C@]1(C(N)=O)COc2c1cc([C@@](O)(CNC(=O)c1cc3ccc(F)cc3[nH]1)C(F)(F)F)nc2-c1ccc(F)cc1` [Example 604], the EC50 was < 200 nM.
The result for `C[C@]1(C(N)=O)COc2c1cc([C@@](O)(CNC(=O)c1cc3ccc(Cl)cc3[nH]1)C(F)(F)F)nc2-c1ccc(F)cc1` [Example 605] reads < 200 nM.

(Values after US11505558B1, “Antiviral heterocyclic compounds” (Enanta Pharmaceuticals, Inc., priority 2019, dated 2022).)
